Columns and labels:
PBMC = assay: Cytotoxicity against human PBMC assessed as reduction in cell viability; assay type: cell-based
MCF7 = assay: Antiproliferative activity against human MCF7 cells; assay type: functional, cell-based
MIA PaCa-2 = assay: Antiproliferative activity against human MIAPaCa2 cells; assay type: functional, cell-based
PC-3 = assay: Antiproliferative activity against human PC3 cells; assay type: functional, cell-based
SW-620 = assay: Antiproliferative activity against human SW620 cells; assay type: functional, cell-based
A-375 = assay: Antiproliferative activity against human A375 cells; assay type: functional, cell-based

O=CNC1(Cc2ccccc2)C(=O)Nc2ccc(Br)cc21 (centres undefined)
IC50 (PBMC): 75.3 µM | IC50 (MCF7): 17.7 µM | IC50 (MIA PaCa-2): 7.46 µM | IC50 (PC-3): 8.95 µM | IC50 (SW-620): 9.81 µM | IC50 (A-375): 6.41 µM

CCCC1(NC(=O)OC)C(=O)Nc2ccccc21 (centres undefined)
IC50 (PBMC): > 100 µM | IC50 (MCF7): > 50 µM | IC50 (SW-620): > 50 µM | IC50 (A-375): > 50 µM

NC1(Cc2ccccc2)C(=O)Nc2ccccc21 (centres undefined)
IC50 (PBMC): > 100 µM | IC50 (MCF7): > 50 µM | IC50 (MIA PaCa-2): 43.1 µM | IC50 (PC-3): > 50 µM | IC50 (SW-620): 37.1 µM | IC50 (A-375): > 50 µM

CCOC(=O)CC1(NC=O)C(=O)N(C(C)=O)c2ccccc21 (centres undefined)
IC50 (PBMC): > 100 µM | IC50 (MCF7): 30.4 µM | IC50 (MIA PaCa-2): > 50 µM | IC50 (PC-3): 17 µM | IC50 (SW-620): > 50 µM | IC50 (A-375): > 50 µM

CCOC(=O)N1C(=O)C(Cc2ccccc2)(NC=O)c2cc(Br)ccc21 (centres undefined)
IC50 (PBMC): > 100 µM | IC50 (MCF7): > 50 µM | IC50 (MIA PaCa-2): > 50 µM | IC50 (PC-3): 32.5 µM | IC50 (SW-620): > 50 µM | IC50 (A-375): > 50 µM

CC(=O)N1C(=O)C(Cc2ccccc2)(NC=O)c2ccccc21 (centres undefined)
IC50 (PBMC): 45.5 µM | IC50 (MCF7): 14.4 µM | IC50 (MIA PaCa-2): 47 µM | IC50 (PC-3): 18.2 µM | IC50 (SW-620): > 50 µM | IC50 (A-375): > 50 µM

CCOP(=O)(NC1(Cc2ccccc2)C(=O)Nc2ccc(Br)cc21)OCC (centres undefined)
IC50 (PBMC): 51.8 µM | IC50 (MCF7): > 50 µM | Activity (MIA PaCa-2): Dose-dependent effect | IC50 (MIA PaCa-2): 30.2 µM | IC50 (PC-3): > 50 µM | Activity (SW-620): Dose-dependent effect | IC50 (SW-620): 27.7 µM | IC50 (A-375): > 50 µM

O=C(NC1(Cc2ccccc2)C(=O)Nc2ccc(Br)cc21)c1ccccc1 (centres undefined)
IC50 (PBMC): > 100 µM | IC50 (MCF7): > 50 µM | IC50 (MIA PaCa-2): > 50 µM | IC50 (PC-3): > 50 µM | IC50 (SW-620): > 50 µM | IC50 (A-375): > 50 µM

NC1(Cc2ccccc2)C(=O)Nc2ccc(Br)cc21 (centres undefined)
IC50 (PBMC): > 100 µM | IC50 (MCF7): > 50 µM | IC50 (MIA PaCa-2): > 50 µM | IC50 (PC-3): > 50 µM | IC50 (SW-620): > 50 µM | IC50 (A-375): > 50 µM
